Source: patent US20020137929A1, “1 - (3-heterocyclylphenyl) isothiourea, -isourea, -guanidine and -amidine herbicidal agents” (Intellectual Property Department, BASF Aktiengesellschaft, priority 1998, published 2002)

What was measured:
ABUTH (Velvetleaf) = assay: Postemergence herbicidal evaluation; format: in vivo, Abutilon theophrasti; settings: postemergence
In short: (§1)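 Visual 0-9 injury score (stand, vigor, malformation, size, chlorosis, appearance vs untreated) taken four to five weeks post-spray, averaged across repeat tests. Test plants about two weeks old; foliar spray of acetone/water (1:1) with 0.5% surfactant delivering ~0.0156-0.500 kg active/ha.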

[1] = test system: IPOHE (Morningglory, Ivyleaf); assay: Postemergence herbicidal evaluation; format: in vivo, Ipomoea hederacea; settings: postemergence
In short: as §1

[2] = test system: TRZAWR (Wheat, Winter, cv Riband); assay: Postemergence herbicidal evaluation; format: in vivo, Triticum aestivum; settings: postemergence
In short: as §1

[3] = test system: CHEAL (Lambsquarters, Common); assay: Preemergence herbicidal evaluation; format: in vivo, Chenopodium album; settings: preemergence, rated 4-5 weeks after treatment, 0-9 scale
In short: (§2)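 Scores use a 0–9 visual scale covering stand, vigor, malformation, size and chlorosis relative to controls, rated four to five weeks after treatment. Before emergence, soil-planted seeds were sprayed with compound in aqueous acetone at roughly 0.0156–0.500 kg/ha and held in the greenhouse.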

[4] = test system: IPOHE (Morningglory, Ivyleaf); assay: Preemergence herbicidal evaluation; format: in vivo, Ipomoea hederacea; settings: preemergence, rated 4-5 weeks after treatment, 0-9 scale
In short: as §2

ECHCG (Barnyardgrass) = assay: Preemergence herbicidal evaluation; format: in vivo, Echinochloa crus-galli; settings: preemergence, rated 4-5 weeks after treatment, 0-9 scale
In short: as §2

SETVI (Foxtail, Green) = assay: Preemergence herbicidal evaluation; format: in vivo, Setaria viridis; settings: preemergence, rated 4-5 weeks after treatment, 0-9 scale
In short: as §2

ORYSAT (Rice, Tebonnet) = assay: Preemergence herbicidal evaluation; format: in vivo, Oryza sativa, (L.) Tebonnet; settings: preemergence, rated 4-5 weeks after treatment, 0-9 scale
In short: as §2

[5] = test system: TRZAWR (Wheat, Winter, cv Riband); assay: Preemergence herbicidal evaluation; format: in vivo, Triticum aestivum; settings: preemergence, rated 4-5 weeks after treatment, 0-9 scale
In short: as §2

[6] = test system: ECHORC (Watergrass (Calif.)); assay: Preemergence weed control under flooded paddy conditions; format: in vivo, Echinochloa oryzoides; settings: rated 3-4 weeks after treatment
In short: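 Herbicidal effect is scored visually on a 0-9 scale against an untreated control, three to four weeks after compounds are pipetted into the flood water (1.5 to 3 cm deep) over seeds planted in silt loam at 0.5 cm depth. Rates: about 0.0313 to 0.500 kg/ha.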

MOOVA (Monochoria) = assay: as above; format: in vivo, Monochoria vaginalis; settings: rated 3-4 weeks after treatment
In short: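 Silt loam, seeds in top 0.5 cm; flood held 1.5-3 cm; test cpd as acetone/water 50/50 into flood water, ~0.0313-0.500 kg/ha a.i.; greenhouse 3-4 wk; visual 0-9 score vs control.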

[7] = test system: ECHORC (Watergrass (Calif.)); assay: Postemergence weed control under flooded paddy conditions; format: in vivo, Echinochloa oryzoides; settings: postemergence weeds, rated 3 to 4 weeks after treatment
In short: (§3)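 Injury ratings (0–9 scale covering stand, vigor, malformation, size, chlorosis and overall appearance versus control) were made three to four weeks after treatment. Test material, about 0.0313 to 0.500 kg/ha a.i. in 50/50 v/v aqueous/acetone, was added to flood water 1.5 to 3 cm deep over 3 to 5 cm weeds and 1.5 to 2.5 leaf rice.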

CYPIR (Rice Flatsedge) = assay: as above; format: in vivo, Cyperus iria; settings: postemergence weeds, rated 3 to 4 weeks after treatment
In short: as §3

With CC(C)OC(=O)CC1SC(=Nc2cc(-n3c(=O)cc(C(F)(F)F)n(C)c3=O)c(F)cc2Cl)N(C)C1=O (stereo not shown) [Compound 89, Isopropyl 2-{{2-chloro-5-[3,6-dihydro-3-methyl-2,6-dioxo-4-(trifluoromethyl)-1(2H)-pyrimidinyl]-4-fluorophenyl}imino}-3-methyl-4-oxo-5-thiazolidineacetate] the ABUTH herbicidal rating (ABUTH (Velvetleaf); rate 0.0158 kg/ha) was 9.0, the ABUTH herbicidal rating (ABUTH (Velvetleaf); rate 0.0313 kg/ha) was 9.0 and the ABUTH herbicidal rating (ABUTH (Velvetleaf); rate 0.0625 kg/ha) was 9.0. For the same compound, the ABUTH herbicidal rating (ABUTH (Velvetleaf); rate 0.1250 kg/ha) was 9.0, the IPOHE herbicidal rating ([1]; rate 0.0158 kg/ha) was 9.0 and the IPOHE herbicidal rating ([1]; rate 0.0313 kg/ha) was 9.0. The IPOHE herbicidal rating ([1]; rate 0.0625 kg/ha) was 9.0, the IPOHE herbicidal rating ([1]; rate 0.1250 kg/ha) was 9.0 and the TRZAWR herbicidal rating ([2]; rate 0.0158 kg/ha) was 5.5. The TRZAWR herbicidal rating ([2]; rate 0.0313 kg/ha) was 7.0, the TRZAWR herbicidal rating ([2]; rate 0.0625 kg/ha) was 7.0 and the TRZAWR herbicidal rating ([2]; rate 0.1250 kg/ha) was 7.0. For the same compound, the CHEAL rating ([3]; 0.0156 kg/ha) was 8.0, the CHEAL rating ([3]; 0.0313 kg/ha) was 9.0 and the CHEAL rating ([3]; 0.0625 kg/ha) was 9.0. For the same compound, the CHEAL rating ([3]; 0.1250 kg/ha) was 9.0, the CHEAL rating ([3]; 0.2500 kg/ha) was 9.0 and the CHEAL rating ([3]; 0.5000 kg/ha) was 9.0. It also gave an IPOHE rating ([4]; 0.0156 kg/ha) of 0.0, an IPOHE rating ([4]; 0.0313 kg/ha) of 0.0 and an IPOHE rating ([4]; 0.0625 kg/ha) of 0.5. For the same compound, the IPOHE rating ([4]; 0.1250 kg/ha) was 1.5, the IPOHE rating ([4]; 0.2500 kg/ha) was 9.0 and the IPOHE rating ([4]; 0.5000 kg/ha) was 9.0. The ECHCG rating (ECHCG (Barnyardgrass); 0.0156 kg/ha) was 0.0, the ECHCG rating (ECHCG (Barnyardgrass); 0.0313 kg/ha) was 0.0 and the ECHCG rating (ECHCG (Barnyardgrass); 0.0625 kg/ha) was 0.0. The ECHCG rating (ECHCG (Barnyardgrass); 0.1250 kg/ha) was 2.0, the ECHCG rating (ECHCG (Barnyardgrass); 0.2500 kg/ha) was 5.5 and the ECHCG rating (ECHCG (Barnyardgrass); 0.5000 kg/ha) was 9.0. For the same compound, the SETVI rating (SETVI (Foxtail, Green); 0.0156 kg/ha) was 0.0, the SETVI rating (SETVI (Foxtail, Green); 0.0313 kg/ha) was 1.5 and the SETVI rating (SETVI (Foxtail, Green); 0.0625 kg/ha) was 1.5. The SETVI rating (SETVI (Foxtail, Green); 0.1250 kg/ha) was 9.0, the SETVI rating (SETVI (Foxtail, Green); 0.2500 kg/ha) was 9.0 and the SETVI rating (SETVI (Foxtail, Green); 0.5000 kg/ha) was 9.0. It also gave an ORYSAT rating (ORYSAT (Rice, Tebonnet); 0.0156 kg/ha) of 0.0, an ORYSAT rating (ORYSAT (Rice, Tebonnet); 0.0313 kg/ha) of 0.5 and an ORYSAT rating (ORYSAT (Rice, Tebonnet); 0.0625 kg/ha) of 2.0. The ORYSAT rating (ORYSAT (Rice, Tebonnet); 0.1250 kg/ha) was 4.5, the ORYSAT rating (ORYSAT (Rice, Tebonnet); 0.2500 kg/ha) was 8.0 and the ORYSAT rating (ORYSAT (Rice, Tebonnet); 0.5000 kg/ha) was 9.0. The TRZAWR rating ([5]; 0.0156 kg/ha) was 0.0, the TRZAWR rating ([5]; 0.0313 kg/ha) was 0.0 and the TRZAWR rating ([5]; 0.0625 kg/ha) was 0.5. It also gave a TRZAWR rating ([5]; 0.1250 kg/ha) of 2.0, a TRZAWR rating ([5]; 0.2500 kg/ha) of 6.5 and a TRZAWR rating ([5]; 0.5000 kg/ha) of 9.0. For the same compound, the “ECHORC herbicidal effect rating” value ([6]; 0.0313 kg/ha) was 3.0, the “ECHORC herbicidal effect rating” value ([6]; 0.0625 kg/ha) was 4.0 and the “ECHORC herbicidal effect rating” value ([6]; 0.1250 kg/ha) was 5.0. The “ECHORC herbicidal effect rating” value ([6]; 0.2500 kg/ha) was 6.0, the “MOOVA herbicidal effect rating” value (MOOVA (Monochoria); 0.0313 kg/ha) was 9.0 and the “MOOVA herbicidal effect rating” value (MOOVA (Monochoria); 0.0625 kg/ha) was 9.0. For the same compound, the “MOOVA herbicidal effect rating” value (MOOVA (Monochoria); 0.1250 kg/ha) was 9.0, the “MOOVA herbicidal effect rating” value (MOOVA (Monochoria); 0.2500 kg/ha) was 9.0 and the “Herbicidal rating ECHORC” value ([7]; Rate 0.0313 kg/ha) was 3.0. For the same compound, the “Herbicidal rating ECHORC” value ([7]; Rate 0.0625 kg/ha) was 4.0, the “Herbicidal rating ECHORC” value ([7]; Rate 0.1250 kg/ha) was 5.0 and the “Herbicidal rating ECHORC” value ([7]; Rate 0.2500 kg/ha) was 6.0. For the same compound, the “Herbicidal rating CYPIR” value (CYPIR (Rice Flatsedge); Rate 0.0313 kg/ha) was 0.0, the “Herbicidal rating CYPIR” value (CYPIR (Rice Flatsedge); Rate 0.0625 kg/ha) was 0.0 and the “Herbicidal rating CYPIR” value (CYPIR (Rice Flatsedge); Rate 0.1250 kg/ha) was 2.0. For the same compound, the “Herbicidal rating CYPIR” value (CYPIR (Rice Flatsedge); Rate 0.2500 kg/ha) was 4.0.
